According to PubChem BioAssay (NCI):
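Where inhibition never reached the appropriate level, the endpoint shown equals the highest concentration tested. Otherwise, values were interpolated linearly from a five-concentration, 48-hour dose response in 96-well plates. TGI marks complete inhibition of growth.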

What was measured:
Assay in all cases: NCI-60 cell line screen, 48 h
[1] = system: 786-0 renal
[2] = system: A549 NSCLC
[3] = system: ACHN renal
[4] = system: CAKI-1 renal
[5] = system: CCRF-CEM leukemia
[6] = system: COLO 205 colon
[7] = system: DLD-1 colon
[8] = system: DMS 114 small cell lung
[9] = system: DMS 273 small cell lung
[10] = system: EKVX NSCLC
[11] = system: HCC-2998 colon
[12] = system: HCT-116 colon
[13] = system: HOP-62 NSCLC
[14] = system: HOP-92 NSCLC
[15] = system: HT29 colon
[16] = system: IGROV1 ovarian
[17] = system: K-562 leukemia
[18] = system: KM12 colon
[19] = system: LOX IMVI melanoma
[20] = system: LXFL 529 NSCLC
[21] = system: M14 melanoma
[22] = system: MALME-3M melanoma
[23] = system: MOLT-4 leukemia
[24] = system: NCI-H226 lung
[25] = system: NCI-H23 lung
[26] = system: NCI-H460 lung
[27] = system: NCI-H522 lung
[28] = system: OVCAR-3 ovarian
[29] = system: OVCAR-4 ovarian
[30] = system: OVCAR-5 ovarian
[31] = system: OVCAR-8 ovarian
[32] = system: RXF 393 renal
[33] = system: SF-268 CNS
[34] = system: SF-295 CNS
[35] = system: SF-539 CNS
[36] = system: SK-MEL-2 melanoma
[37] = system: SK-MEL-28 melanoma
[38] = system: SK-MEL-5 melanoma
[39] = system: SK-OV-3 ovarian
[40] = system: SN12C renal
[41] = system: SNB-19 CNS
[42] = system: SNB-75 CNS
[43] = system: SNB-78 CNS
[44] = system: SR leukemia
[45] = system: SW-620 colon
[46] = system: TK-10 renal
[47] = system: U251 CNS
[48] = system: UACC-62 melanoma
[49] = system: UO-31 renal
[50] = system: XF 498 CNS
[51] = system: HCT-15 colon
[52] = system: HL-60(TB) leukemia
[53] = system: M19-MEL melanoma
[54] = system: RPMI-8226 leukemia
[55] = system: UACC-257 melanoma
[56] = system: A498 renal
[57] = system: KM20L2 colon

Measured: TGI

O=C(Nc1ccccc1-c1nn(CO)c(=S)n(CO)c1=O)C(F)(F)F
not listed: [51] | [52] | [53] | [54] | [55] | [56] | [57]
> 100 µM: all other assays above

CCN(CC)CCC(=O)NC1c2ccccc2Oc2c(C)cccc21 (configuration not stated)
not listed: [4] | [14] | [18] | [22] | [27] | [28] | [34] | [36] | [56] | [57]
> 100 µM: all other assays above

COc1ccc(OC)c(NC(=O)C2=C(C)NC(C)=C(C(=O)Nc3cc(OC)ccc3OC)C2c2ccco2)c1
not listed: [11] | [19] | [29] | [32] | [34] | [37] | [52] | [55]
> 100 µM: all other assays above

Cn1c(=O)c2nc(N3CCOCC3)cnc2n(C)c1=O
not listed: [1] | [19] | [24] | [32]
> 100 µM: all other assays above

N=c1oc2c(O)c(O)ccc2cc1C(N)=O
50.9 µM: [31]
83.4 µM: [45]
31.7 µM: [29]
97.6 µM: [42]
25.3 µM: [1]
75.2 µM: [23]
93.1 µM: [20]
36.4 µM: [17]
47 µM: [5]
53 µM: [50]
94.5 µM: [34]
44.8 µM: [53]
not listed: [19] | [38] | [44] | [52]
> 100 µM: all other assays above
